Values of other authors, collected in article PMC4860896 (Theranostics, 2016).

In the case of OCC1[C@H]2CC/C=C/CC[C@@H]12 (stereo partly drawn) [compound 4, (1R,8S,E)-bicyclo[6.1.0]non-4-en-9-ylmethanol], the “rate constant of reaction of sTCO with diphenyl-s-tetrazine derivatives” value (at 25 °C in water, prior study) is listed as “up to 2.86 x 10^5 M^-1s^-1” and the “rate constant of tetrazine ligation, fastest measured” value (room temperature conjugations in water, listed as sTCO) is listed as no more than 3.3e+06 M⁻¹ s⁻¹.
